Experiments:
[1] = biological target: T1, TLR8 (Homo sapiens, UniProt Q9NR97); assay: Identification as TLR8 activator or non-activator (negative control compound); format: cell-based; settings: used as negative control in monocyte, dendritic cell and macrophage tests
T1 sequence (Q9NR97 27-1041): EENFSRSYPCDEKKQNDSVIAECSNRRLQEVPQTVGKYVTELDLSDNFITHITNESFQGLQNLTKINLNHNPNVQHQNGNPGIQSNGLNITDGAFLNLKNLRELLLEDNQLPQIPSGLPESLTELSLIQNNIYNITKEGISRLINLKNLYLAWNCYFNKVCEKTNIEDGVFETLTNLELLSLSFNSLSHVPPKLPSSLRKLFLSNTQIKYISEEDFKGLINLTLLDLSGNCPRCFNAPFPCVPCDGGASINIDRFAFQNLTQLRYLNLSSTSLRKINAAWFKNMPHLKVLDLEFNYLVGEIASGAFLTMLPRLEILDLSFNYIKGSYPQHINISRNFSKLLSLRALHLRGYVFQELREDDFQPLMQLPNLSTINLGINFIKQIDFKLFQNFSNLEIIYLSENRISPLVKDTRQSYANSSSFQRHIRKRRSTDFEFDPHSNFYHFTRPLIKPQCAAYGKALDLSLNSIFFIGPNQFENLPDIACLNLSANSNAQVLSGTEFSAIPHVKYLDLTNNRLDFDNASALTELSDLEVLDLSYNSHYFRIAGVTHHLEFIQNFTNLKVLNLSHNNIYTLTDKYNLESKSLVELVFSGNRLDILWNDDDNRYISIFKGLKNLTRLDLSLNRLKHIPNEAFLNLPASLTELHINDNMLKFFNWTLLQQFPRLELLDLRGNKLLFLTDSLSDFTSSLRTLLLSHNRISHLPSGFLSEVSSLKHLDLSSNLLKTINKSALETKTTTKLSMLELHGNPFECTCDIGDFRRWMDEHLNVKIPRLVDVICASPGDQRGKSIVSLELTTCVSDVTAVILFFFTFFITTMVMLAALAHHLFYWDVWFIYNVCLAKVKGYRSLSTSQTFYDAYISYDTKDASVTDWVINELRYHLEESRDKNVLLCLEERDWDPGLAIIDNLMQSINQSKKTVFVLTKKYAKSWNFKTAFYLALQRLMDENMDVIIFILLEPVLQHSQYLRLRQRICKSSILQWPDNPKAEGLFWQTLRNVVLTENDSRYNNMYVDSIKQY

[2] = tested on: HEK293-vector; assay: NF-κB-luciferase reporter activation in HEK293-vector control cells, 10 μM IRM (Example 1); format: cell-based, human; settings: 16 hours, luciferase signal, vector-transfected cells
Description: (§1) HEK293 cells, derived from human embryonic kidney cells, may be co-transfected with (1) either a control vector (HEK293-vector) or a vector construct including human TLR8 (HEK293-TLR8), and (2) an NF-κB-luciferase reporter. The NF-κB-luciferase reporter provides a luciferase signal upon NF-κB activation in a transfected cell. Thus, TLR8-mediated NF-κB activity can be detected by exposing the cells transfected with vector and the cells transfected with the TLR8 construct to a test compound, then comparing the luciferase signal of the vector-transfected cells with the luciferase signal of the cells transfected with the TLR8 construct.
(§2) HEK293 cells were cultured in 90% Minimum Essential Medium (MEM) with 2 mM L-glutamine and Earle's Balanced Salt Solution (Invitrogen Corp., Rockville, Md.) adjusted to contain 1.5 g/L sodium bicarbonate, 0.1 mM non-essential amino acids, and 1.0 mM sodium pyruvate; 10% heat-inactivated fetal calf serum. The cells were incubated at 37° C., 8% CO2.
(§3) The cells were co-transfected with (1) pIRES (BD Biosciences Clontech, Palo Alto, Calif.) either (a) unmodified (HEK293-vector) or (b) containing human TLR8 (HEK293-TLR8), and (2) NFkB-luc reporter (Stratagene, La Jolla, Calif.) in a 10:1 ratio with Fugene 6 transfection reagent (Roche Diagnostics Corp., Indianapolis, Ind.) following the manufacturer's instructions.
(§4) The cells were stimulated with 1 μL of IRM compounds at 1 mM in DMSO (final IRM concentration of 10 μM) or 1 μL DMSO as a control. The plates were then incubated an additional 16 hours at 37° C., 5% CO2. Luminescence was measured on an LMAX luminometer (Molecular Devices Corp., Sunnyvale, Calif.).

[3] = biological target: T1, TLR8; assay: NF-κB-luciferase reporter activation in HEK293-TLR8 cells, 10 μM IRM (Example 1); format: cell-based; set-up: expressed in transfected cells; host or cells: HEK293 (ATCC CRL-1573), pIRES vector, G-418 selected, co-transfected with NFkB-luc reporter; settings: for Fold Increase Over DMSO Control, HEK293-TLR8: 16 hours, luciferase signal, TLR8-transfected cells; for Fold Increase Over DMSO Control, HEK293-TLR8 / HEK293-vector: ratio of TLR8-transfected to vector-transfected cells
Description: as §1, §2, §3, §4

Row | TLR8 activation (in words) [1] | Fold Increase Over DMSO Control, HEK293-TLR8 [3] | Fold Increase Over DMSO Control, HEK293-TLR8 / HEK293-vector [3] | Structure (SMILES) | fold induction at 10 µM ([2]; Homo sapiens, read-out: Fold Increase Over DMSO Control, HEK293-vector) | Fold Increase Over DMSO Control, HEK293-vector [2]
1 | does not activate TLR8 | – | – | CCc1nc2c(N)nc3ccccc3c2n1CCCCNS(C)(=O)=O [IRM 16, N-[4-(4-amino-2-ethyl-1H-imidazo[4,5-c]quinolin-1-yl)butyl]methanesulfonamide] | – | –
2 | – | 6.04 fold | 5.2 | CCc1nc2c(N)nc3ccccc3c2n1CCCCS(=O)(=O)c1cc(Cl)cc(Cl)c1 [IRM 12, 1-{4-[(3,5-dichlorophenyl)sulfonyl]butyl}-2-ethyl-1H-imidazo[4,5-c]quinolin-4-amine] | 1.16 | –
3 | – | 2.33 fold | 2.3 | CCOCc1nc2c(N)nc3ccccc3c2n1CCOCCNC(=O)NC1CCCCC1 [IRM 13, N-(2-{2-[4-amino-2-(ethoxymethyl)-1H-imidazo[4,5-c]quinolin-1-yl]ethoxy}ethyl)-n′-cyclohexylurea] | – | 0.99 fold

Reference: US7375180B2, “Methods and compositions related to IRM compounds and Toll-like receptor 8” (3M Innovative Properties Company, priority 2003, dated 2008)
